Legend:
[1] = system: Aspergillus fumigatus TIMM0063; experiment: In vitro anti-Aspergillus activity test; type: cell-based; conditions: 80% or more inhibition, unit inferred
Protocol: Aspergillus fumigatus TIMM0063 was used as the strain. The test fungi were cultured on a Potato dextrose agar slant medium at 35° C. for 4 days, and then sterilized saline containing 0.1% (v/v) Tween 80 was added to release the conidia. This conidial suspension was filtered through sterile gauze, and the number of conidia was counted using a hemocytometer. The same solution was adjusted to a conidial concentration of 1×10^6 conidia/mL, and this was used as an inoculum. Each compound was dissolved in dimethyl sulfoxide to a predetermined concentration, and diluted 50-fold with 0.165 M MOPS buffered RPMI 1640 liquid medium, and each diluted solution was dispensed into a 96-well microplate by each 100 μL. The inoculum was diluted 50-fold with 0.165 M MOPS buffered RPMI 1640 liquid medium containing 20% alamar Blue™, and the diluted solution was inoculated into the 96-well microplate containing the compound by each 100 μL (final inoculum amount 1.0×10^4 conidia/mL). After static culture at 35° C. for 48 hr, the degree of color development of the alamar Blue™ was measured using a microplate reader (O.D. 570-595 nm), and the minimum concentration showing 80% or more inhibition was defined as the minimum inhibitory concentration (MIC).

[2] = system: Candida albicans NBRC1270; experiment: In vitro anti-Candida activity test; type: cell-based; conditions: 80% or more inhibition, unit inferred
Protocol: Candida albicans NBRC1270 was used as the strain. The test fungi were cultured on a Sabouraud dextrose agar slant medium at 35° C. for 24 hr, and then suspended in sterilized saline. The number of cells in this suspension was counted using a hemocytometer, and the same suspension was adjusted to a cell concentration of 1.5×10^5 cells/mL, and this was used as an inoculum. Each compound was dissolved in dimethyl sulfoxide to a predetermined concentration, and diluted 50-fold with 0.165 M MOPS buffered RPMI 1640 liquid medium, and each diluted solution was dispensed into a 96-well microplate by each 100 μL. The inoculum was diluted 50-fold with 0.165 M MOPS buffered RPMI 1640 liquid medium containing 20% alamar Blue™, and the diluted solution was inoculated into the 96-well microplate containing the compound by each 100 μL (final inoculum amount 1.5×10^3 cells/mL). After static culture at 35° C. for 24 hr, the degree of color development of the alamar Blue™ was measured using a microplate reader (O.D. 570-595 nm), and the minimum concentration showing 80% or more inhibition was defined as the minimum inhibitory concentration (MIC).

SMILES	A. fumigatus (MIC) ([1]; Table 23, 35° C. for 48 hr)	C. albicans (MIC) ([2]; Table 23, 35° C. for 24 hr)	A. fumigatus (MIC) ([1]; Table 24, 35° C. for 48 hr)	C. albicans (MIC) ([2]; Table 24, 35° C. for 24 hr)
N#C/C(=C1/SCC(c2ncc(NC(=O)OCc3ncc(F)cc3F)cc2Cl)S1)n1cncn1 (racemic) [compound 75]	10 ng/mL	10 ng/mL		
CC(C)COC(=O)Nc1cnc(C2CS/C(=C(/C#N)n3cncn3)S2)c(Cl)c1 (racemic) [compound 83]	10 ng/mL	5 ng/mL		
CCCOC(=O)Nc1cnc(C2CS/C(=C(/C#N)n3cncn3)S2)c(Cl)c1 (racemic) [compound 84]	5 ng/mL	5 ng/mL		
N#C/C(=C1/SCC(c2ncc(NC(=O)OCC3CC3)cc2Cl)S1)n1cncn1 (racemic) [compound 87]	5 ng/mL	1.25 ng/mL		
N#C/C(=C1/SCC(c2ncc(NC(=O)OCc3ccc(F)cc3)cc2Cl)S1)n1cncn1 (racemic) [compound 89]	10 ng/mL	2.5 ng/mL		
N#C/C(=C1/SCC(c2ncc(NC(=O)OCC3CC3(F)F)cc2Cl)S1)n1cncn1 (racemic) [compound 96]	10 ng/mL	5 ng/mL		
N#C/C(=C1/SCC(c2ncc(NC(=O)OCC3CCC3)cc2Cl)S1)n1cncn1 (racemic) [compound 97]	10 ng/mL	2.5 ng/mL		
N#C/C(=C1/SCC(c2ncc(NC(=O)OCc3cccc(F)c3)cc2Cl)S1)n1cncn1 (racemic) [compound 98]	5 ng/mL	2.5 ng/mL		
N#C/C(=C1/SCC(c2ncc(NC(=O)OCc3ccccc3F)cc2Cl)S1)n1cncn1 (racemic) [compound 99]	5 ng/mL	2.5 ng/mL		
N#C/C(=C1/SCC(c2ncc(NC(=O)OCC3CC3)cc2F)S1)n1cncn1 (racemic) [compound 103]	10 ng/mL	5 ng/mL		
N#C/C(=C1/SCC(c2ncc(NC(=O)OCC3CC(F)(F)C3)cc2Cl)S1)n1cncn1 (racemic) [compound 107]	10 ng/mL	5 ng/mL		
N#C/C(=C1/SCC(c2ncc(NC(=O)OCc3ccncc3F)cc2Cl)S1)n1cncn1 (racemic) [compound 114]			10 ng/mL	10 ng/mL
N#C/C(=C1/SCC(c2ncc(NC(=O)OCc3ccnc(F)c3)cc2Cl)S1)n1cncn1 (racemic) [compound 115]			10 ng/mL	5 ng/mL
CC1CC1COC(=O)Nc1cnc(C2CS/C(=C(/C#N)n3cncn3)S2)c(Cl)c1 (racemic) [compound 118]			5 ng/mL	1.25 ng/mL
N#C/C(=C1/SCC(c2ncc(NC(=O)OCC3CC3(F)F)cc2F)S1)n1cncn1 (racemic) [compound 128]			10 ng/mL	10 ng/mL
N#CC(=C1SCC(c2ncc(C=NOCC3CC3)cc2Cl)S1)n1cncn1 (racemic) [compound 139]			2.5 ng/mL	1.25 ng/mL
N#CC(=C1SCC(c2ncc(C=NOCC3CC3)cc2F)S1)n1cncn1 (racemic) [compound 140]			2.5 ng/mL	2.5 ng/mL
CCCON=Cc1cnc(C2CSC(=C(C#N)n3cncn3)S2)c(Cl)c1 (racemic) [compound 141]			2.5 ng/mL	2.5 ng/mL
CC(C)ON=Cc1cnc(C2CSC(=C(C#N)n3cncn3)S2)c(Cl)c1 (racemic) [compound 142]			10 ng/mL	2.5 ng/mL
CC(C)CON=Cc1cnc(C2CSC(=C(C#N)n3cncn3)S2)c(Cl)c1 (racemic) [compound 143]			5 ng/mL	2.5 ng/mL
CCCON=Cc1cnc(C2CSC(=C(C#N)n3cncn3)S2)c(F)c1 (racemic) [compound 144]			5 ng/mL	10 ng/mL
